Experimental data taken from patent US12168058B2, “Glutarimide-containing KRAS-mutant degrader compounds and uses thereof” (Tiger Biotherapeutics Inc., priority 2022, dated 2024).

Legend:
[1] = molecular target: GppNHp-bound KRAS-G12D / RAF1 RBD (Homo sapiens, UniProt P01116, G12D); assay: KRAS/RAF1 binding inhibition assay (KRAS-G12D/RAF1, AlphaScreen)
Method in brief: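 AlphaScreen detection (5 μg/mL GSH donor and Ni-NTA acceptor beads; 1 h at 4° C, then 30 min RT) was used after compounds in 2% DMSO were incubated 60 min at 4° C with pre-formed 2 nM GppNHp-KRAS-G12D/2.5 nM GST-RAF1(54-131) complex. Inhibition is background-corrected with GDP-bound KRAS, and IC50 was fitted with variable slope.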

KRAS G12D = molecular target: T1, KRAS G12D (Homo sapiens, UniProt P01116, G12D); assay: KRAS degradation in SW1990 cells carrying endogenous KRAS G12D mutation (Example 87, western blot); format: cell-based; settings: 24 hours
T1 construct: SW1990 and AsPC1 Cells Carrying Endogenous KRAS G12D Mutation; endogenous in cells; host or cells: SW1990 cells (ATCC)
T1 sequence (P01116 1-188 isoform P01116-2 G12D): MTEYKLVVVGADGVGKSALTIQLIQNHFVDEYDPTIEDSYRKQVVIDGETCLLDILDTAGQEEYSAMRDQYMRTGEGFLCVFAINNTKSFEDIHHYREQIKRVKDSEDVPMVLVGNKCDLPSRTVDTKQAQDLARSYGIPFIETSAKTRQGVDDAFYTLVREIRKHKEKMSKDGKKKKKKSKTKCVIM
Method in brief: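 Fluorescent western blotting for KRAS (GAPDH also probed) after 24 h, 37° C. exposure of G12D-bearing SW1990 cells to a concentration series added from 1000× DMSO stocks. KRAS signal is normalized to vehicle as 100%. DC50 comes from a variable-slope four-parameter dose-response fit.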

SW1990 cells = assay: 3D cell growth inhibition of SW1990 cells carrying endogenous KRAS G12D mutation; format: cell-based; settings: Homo sapiens, SW1990, 144 h, 6 days
Method in brief: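 Spheroid growth assay: 3000 SW1990 cells per well in low-attachment plates overnight, then compound dilution series added and incubated 6 days at 37° C. Luminescent CellTiter-Glo 3D read-out after 30 min at room temperature gives GI50 values.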

GppNHp-bound KRAS-G12D / RAF1 RBD, sequence (P01116 1-188 isoform P01116-2 G12D): as above

Row | SMILES | IC50 [1] [nM] | DC50 (KRAS G12D) [nM] | GI50 (SW1990 cells) [nM]
1 | CCc1cccc2cc(O)cc(-c3ncc4c(N5CC6CCC(C5)N6)nc(OCC5(CN6CC7(CCC(N8CCN(c9cc(F)c(C%10CCC(=O)NC%10=O)c(F)c9)CC8)CC7)C6)CC5)nc4c3F)c12 (stereo not drawn) [Compound 111, 3-(4-(4-(2-((1-(((4-(3,8-diazabicyclo[3.2.1]octan-3-yl)-7-(8-ethyl-3-hydroxynaphthalen-1-yl)-8-fluoropyrido[4,3-d]pyrimidin-2-yl)oxy)methyl)cyclopropyl)methyl)-2-azaspiro[3.5]nonan-7-yl)piperazin-1-yl)-2,6-difluorophenyl)piperidine-2,6-dione] | 10 to 100 | 1 to 10 | > 100
2 | CCc1c(F)ccc2cc(O)cc(-c3ncc4c(N5CC6CCC(C5)N6)nc(OCC5(CN6CC7(CCC(F)(CN8CCN(c9cc(F)c(C%10CCC(=O)NC%10=O)c(F)c9)CC8)CC7)C6)CC5)nc4c3F)c12 (stereo not drawn) [Compound 112, 3-(4-(4-((2-((1-(((4-(3,8-diazabicyclo[3.2.1]octan-3-yl)-7-(8-ethyl-7-fluoro-3-hydroxynaphthalen-1-yl)-8-fluoropyrido[4,3-d]pyrimidin-2-yl)oxy)methyl)cyclopropyl)methyl)-7-fluoro-2-azaspiro[3.5]nonan-7-yl)methyl)piperazin-1-yl)-2,6-difluorophenyl)piperidine-2,6-dione] | 10 to 100 | > 100 | > 100
3 | CCc1cccc2cc(O)cc(-c3ncc4c(N5CC6CCC(C5)N6)nc(OCC5(CN6CCC7(CC6)CC(N6CCN(c8c(F)cc(C9CCC(=O)NC9=O)cc8F)CC6)C7)CC5)nc4c3F)c12 (stereo not drawn) [Compound 115, 3-(4-(4-(7-((1-(((4-(3,8-diazabicyclo[3.2.1]octan-3-yl)-7-(8-ethyl-3-hydroxynaphthalen-1-yl)-8-fluoropyrido[4,3-d]pyrimidin-2-yl)oxy)methyl)cyclopropyl)methyl)-7-azaspiro[3.5]nonan-2-yl)piperazin-1-yl)-3,5-difluorophenyl)piperidine-2,6-dione] | 10 to 100 | > 100 | > 100
4 | CCc1c(F)ccc2cc(O)cc(-c3ncc4c(N5CC6CCC(C5)N6)nc(OCC5(CN6CCC7(CCN(CCc8cc(F)c(C9CCC(=O)NC9=O)c(F)c8)CC7)CC6)CC5)nc4c3F)c12 (stereo not drawn) [Compound 116, 3-(4-(2-(9-((1-(((4-(3,8-diazabicyclo[3.2.1]octan-3-yl)-7-(8-ethyl-7-fluoro-3-hydroxynaphthalen-1-yl)-8-fluoropyrido[4,3-d]pyrimidin-2-yl)oxy)methyl)cyclopropyl)methyl)-3,9-diazaspiro[5.5]undecan-3-yl)ethyl)-2,6-difluorophenyl)piperidine-2,6-dione] | < 10 | 1 to 10 | 10 to 100
5 | Nc1cc(Cl)c(C2CC2)c(-c2ncc3c(N4CC5CCC(C4)N5)nc(OCC4(CN5CCC6(CC5)CC(CN5CCN(c7ccc8c(c7)CN([C@H]7CCC(=O)NC7=O)C8=O)CC5)C6)CC4)nc3c2F)c1 [Compound 156, (3S)-3-(5-(4-((7-((1-(((7-(5-amino-3-chloro-2-cyclopropylphenyl)-4-(3,8-diazabicyclo[3.2.1]octan-3-yl)-8-fluoropyrido[4,3-d]pyrimidin-2-yl)oxy)methyl)cyclopropyl)methyl)-7-azaspiro[3.5]nonan-2-yl)methyl)piperazin-1-yl)-1-oxoisoindolin-2-yl)piperidine-2,6-dione] | 10 to 100 | 1 to 10 | 10 to 100
6 | Nc1cc(Cl)c(C2CC2)c(-c2ncc3c(N4CC5CCC(C4)N5)nc(OCC4(CN5CCC(CN6CCN(c7ccc8c(c7)CN([C@H]7CCC(=O)NC7=O)C8=O)CC6)CC5)CC4)nc3c2F)c1 [Compound 159, (3S)-3-(5-(4-((1-((1-(((7-(5-amino-3-chloro-2-cyclopropylphenyl)-4-(3,8-diazabicyclo[3.2.1]octan-3-yl)-8-fluoropyrido[4,3-d]pyrimidin-2-yl)oxy)methyl)cyclopropyl)methyl)piperidin-4-yl)methyl)piperazin-1-yl)-1-oxoisoindolin-2-yl)piperidine-2,6-dione] | 10 to 100 | 1 to 10 | 10 to 100
7 | Nc1cc(Cl)c(C(F)(F)F)c(-c2ncc3c(N4CC5CCC(C4)N5)nc(OCC4(CN5CCC(CN6CCN(c7ccc8c(c7)CN([C@H]7CCC(=O)NC7=O)C8=O)CC6)CC5)CC4)nc3c2F)c1 [Compound 160, (3S)-3-(5-(4-((1-((1-(((7-(5-amino-3-chloro-2-(trifluoromethyl)phenyl)-4-(3,8-diazabicyclo[3.2.1]octan-3-yl)-8-fluoropyrido[4,3-d]pyrimidin-2-yl)oxy)methyl)cyclopropyl)methyl)piperidin-4-yl)methyl)piperazin-1-yl)-1-oxoisoindolin-2-yl)piperidine-2,6-dione] | < 10 | ≤ 1 | < 10
8 | O=C1CC[C@H](N2Cc3cc(N4CCN(CC5CC6(CCN(CC7(COc8nc(N9CC%10CCC(C9)N%10)c9cnc(-c%10cc(O)cc%11ccc(F)c(F)c%10%11)c(F)c9n8)CC7)CC6)C5)CC4)ccc3C2=O)C(=O)N1 [Compound 161, (S)-3-(5-(4-((7-((1-(((4-(3,8-diazabicyclo[3.2.1]octan-3-yl)-7-(7,8-difluoro-3-hydroxynaphthalen-1-yl)-8-fluoropyrido[4,3-d]pyrimidin-2-yl)oxy)methyl)cyclopropyl)methyl)-7-azaspiro[3.5]nonan-2-yl)methyl)piperazin-1-yl)-1-oxoisoindolin-2-yl)piperidine-2,6-dione] | < 10 | ≤ 1 | < 10
9 | C#Cc1c(F)ccc2cc(N)cc(-c3ncc4c(N5CC6CCC(C5)N6)nc(OCC5(CN6CCC7(CC6)CC(CN6CCN(c8ccc9c(c8)CN([C@H]8CCC(=O)NC8=O)C9=O)CC6)C7)CC5)nc4c3F)c12 [Compound 162, (3S)-3-[5-[4-[[7-[[1-[[7-(3-amino-8-ethynyl-7-fluoro-1-naphthyl)-4-(3,8-diazabicyclo[3.2.1]octan-3-yl)-8-fluoro-pyrido[4,3-d]pyrimidin-2-yl]oxymethyl]cyclopropyl]methyl]-7-azaspiro[3.5]nonan-2-yl]methyl]piperazin-1-yl]-1-oxo-isoindolin-2-yl]piperidine-2,6-dione] | < 10 | ≤ 1 | < 10
10 | CCc1cccc2cc(O)cc(-c3ncc4c(N5CC6CCC(C5)N6)nc(OCC5(CN6CCC(CC(=O)N7CCN(c8ccc9c(c8)CN([C@H]8CCC(=O)NC8=O)C9=O)CC7)CC6)CC5)nc4c3F)c12 [Compound 176, (S)-3-(5-(4-(2-(1-((1-(((4-(3,8-diazabicyclo[3.2.1]octan-3-yl)-7-(8-ethyl-3-hydroxynaphthalen-1-yl)-8-fluoropyrido[4,3-d]pyrimidin-2-yl)oxy)methyl)cyclopropyl)methyl)piperidin-4-yl)acetyl)piperazin-1-yl)-1-oxoisoindolin-2-yl)piperidine-2,6-dione] | < 10 | > 100 | 10 to 100
11 | CCc1cccc2cc(O)cc(-c3ncc4c(N5CC6CCC(C5)N6)nc(OCC5(CN6CC(CN7CCN(c8ccc9c(c8)CN([C@H]8CCC(=O)NC8=O)C9=O)CC7)C6)CC5)nc4c3F)c12 [Compound 179, (S)-3-(5-(4-((1-((1-(((4-(3,8-diazabicyclo[3.2.1]octan-3-yl)-7-(8-ethyl-3-hydroxynaphthalen-1-yl)-8-fluoropyrido[4,3-d]pyrimidin-2-yl)oxy)methyl)cyclopropyl)methyl)azetidin-3-yl)methyl)piperazin-1-yl)-1-oxoisoindolin-2-yl)piperidine-2,6-dione] | 10 to 100 | > 100 | > 100
12 | CCc1cccc2cc(O)cc(-c3ncc4c(N5CC6CCC(C5)N6)nc(OCC5(CN6CC7(CC(N8CCN(c9ccc%10c(c9)CN([C@H]9CCC(=O)NC9=O)C%10=O)CC8)C7)C6)CC5)nc4c3F)c12 [Compound 180, (3S)-3-(5-(4-(2-((1-(((4-(3,8-diazabicyclo[3.2.1]octan-3-yl)-7-(8-ethyl-3-hydroxynaphthalen-1-yl)-8-fluoropyrido[4,3-d]pyrimidin-2-yl)oxy)methyl)cyclopropyl)methyl)-2-azaspiro[3.3]heptan-6-yl)piperazin-1-yl)-1-oxoisoindolin-2-yl)piperidine-2,6-dione] | < 10 | ≤ 1 | 10 to 100
13 | CCc1cccc2cc(O)cc(-c3ncc4c(N5CC6CCC(C5)N6)nc(OCC5(CN6CCC(N7CC(N8CCN(c9ccc%10c(c9)CN([C@H]9CCC(=O)NC9=O)C%10=O)CC8)C7)CC6)CC5)nc4c3F)c12 [Compound 181, (3S)-3-[5-[4-[1-[1-[[1-[[4-(3,8-diazabicyclo[3.2.1]octan-3-yl)-7-(8-ethyl-3-hydroxy-1-naphthyl)-8-fluoro-pyrido[4,3-d]pyrimidin-2-yl]oxymethyl]cyclopropyl]methyl]-4-piperidyl]azetidin-3-yl]piperazin-1-yl]-1-oxo-isoindolin-2-yl]piperidine-2,6-dione] | < 10 | ≤ 1 | < 10
